Experimental data from patent US8802597B2, “Herbicidal pyrimidines” (E I du Pont de Nemours and Company, priority 2003, dated 2014).

Columns and labels:
Type in all cases: in vivo
[1] = system: crabgrass (Digitaria sanguinalis); assay: Test B pre/postemergence
In short: (§1)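 Following sowing, compounds in a surfactant-bearing non-phytotoxic solvent were applied preemergence; emerged plants 2 to 18 cm high got postemergence treatment concurrently. Evaluation: 13 to 15 days later, greenhouse, 0–100 visual scale.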

[2] = system: velvetleaf (Abutilon theophrasti); assay: Test B pre/postemergence
In short: as §1

[3] = system: Surinam grass (Brachiaria decumbens); assay: Test B pre/postemergence
In short: as §1

[4] = system: barnyardgrass (Echinochloa crus-galli); assay: Test B pre/postemergence
In short: as §1

[5] = system: giant foxtail (Setaria faberii); assay: Test B pre/postemergence
In short: as §1

[6] = system: pigweed (Amaranthus retroflexus); assay: Test B pre/postemergence
In short: as §1

[7] = system: cocklebur (Xanthium strumarium); assay: Test B pre/postemergence
In short: as §1

[8] = system: lambsquarters (Chenopodium album); assay: Test B pre/postemergence; conditions: for Plant response rating, Lambsquarters: 500 g ai/ha
In short: as §1

corn (Zea mays) = assay: Test B pre/postemergence
In short: as §1

[9] = system: morningglory (Ipomoea coccinea); assay: Test B pre/postemergence
In short: as §1

[10] = system: wheat (Triticum aestivum); assay: Test B pre/postemergence
In short: as §1

[11] = system: blackgrass (Alopecurus myosuroides); assay: Test B postemergence
In short: as §1

wild oat (Avena fatua) = assay: Test B postemergence
In short: as §1

[12] = system: barnyardgrass (Echinochloa crus-galli); assay: Test B flooded paddy test; conditions: Flood, 1000 g ai/ha; scale 0 (no effect) to 100 (complete control)
In short: (§2)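 Visual injury scoring (0 = no effect, 100 = complete control) versus controls made 13 to 15 days after treatment in the greenhouse. Test species were grown in flooded paddy to the 2-leaf stage: rice, barnyardgrass, umbrella sedge, duck salad.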

[13] = system: umbrella sedge (Cyperus difformis); assay: Test B flooded paddy test; conditions: Flood, 1000 g ai/ha; scale 0 to 100
In short: as §2

rice (Oryza sativa) = assay: Test B flooded paddy test; conditions: Flood, 1000 g ai/ha; scale 0 to 100
In short: as §2

[14] = system: duck salad (Heteranthera limosa); assay: Test B flooded paddy test; conditions: Flood, 1000 g ai/ha; scale 0 to 100
In short: as §2

[15] = Postemergence, 125 g ai/ha, scale 0 to 100 (0 no effect, 100 complete control)
[16] = Postemergence, 500 g ai/ha, scale 0 to 100
[17] = Preemergence, 125 g ai/ha, scale 0 to 100 (0 no effect, 100 complete control)
[18] = Preemergence, 500 g ai/ha, scale 0 to 100 (0 no effect, 100 complete control)
[19] = 125 g ai/ha, scale 0 to 100 (0 no effect, 100 complete control)

CC(=O)NN=Cc1nc(C2CC2)nc(N)c1Br [Compound 51]
Crabgrass plant response rating [1, 15]: 30
Plant response rating, Crabgrass [1, 16]: 60
Plant response rating, Crabgrass [1, 17]: 0
Plant response rating, Crabgrass [1, 18]: 0
Velvetleaf plant response rating [2, 15]: 70
Plant response rating, Velvetleaf [2, 16]: 80
Plant response rating, Velvetleaf [2, 17]: 0
Plant response rating, Velvetleaf [2, 18]: 0
Surinam Grass plant response rating [3, 15]: 0
Plant response rating, Surinam Grass [3, 16]: 40
Plant response rating, Surinam Grass [3, 17]: 0
Plant response rating, Surinam Grass [3, 18]: 0
Barnyardgrass plant response rating [4, 15]: 20
Plant response rating, Barnyardgrass [4, 16]: 60
Plant response rating, Barnyardgrass [4, 17]: 0
Plant response rating, Barnyardgrass [4, 18]: 0
Foxtail, Giant plant response rating [5, 15]: 0
Plant response rating, Foxtail, Giant [5, 16]: 30
Plant response rating, Foxtail, Giant [5, 17]: 0
Plant response rating, Foxtail, Giant [5, 18]: 0
Pigweed plant response rating [6, 15]: 80
Plant response rating, Pigweed [6, 16]: 90
Plant response rating, Pigweed [6, 17]: 10
Plant response rating, Pigweed [6, 18]: 70
Cocklebur plant response rating [7, 15]: 80
Plant response rating, Cocklebur [7, 16]: 90
Plant response rating, Cocklebur [7, 17]: 0
Plant response rating, Cocklebur [7, 18]: 20
Lambsquarters plant response rating [8, 15]: 80
Plant response rating, Lambsquarters ([8]; Postemergence, scale 0 to 100): 90
Plant response rating, Lambsquarters ([8]; Preemergence, scale 0 to 100 (0 no effect, 100 complete control)): 80
Corn plant response rating (corn (Zea mays); [15]): 0
Plant response rating, Corn (corn (Zea mays); [16]): 0
Plant response rating, Corn (corn (Zea mays); [17]): 0
Plant response rating, Corn (corn (Zea mays); [18]): 0
Morningglory plant response rating [9, 15]: 80
Plant response rating, Morningglory [9, 16]: 90
Plant response rating, Morningglory [9, 17]: 0
Plant response rating, Morningglory [9, 18]: 40
Wheat plant response rating [10, 15]: 30
Plant response rating, Wheat [10, 16]: 40
Plant response rating, Wheat [10, 17]: 0
Plant response rating, Wheat [10, 18]: 0
Blackgrass plant response rating [11, 19]: 20
Plant response rating, Blackgrass ([11]; 500 g ai/ha, scale 0 to 100): 30
Oat, Wild plant response rating (wild oat (Avena fatua); [19]): 20
Plant response rating, Oat, Wild (wild oat (Avena fatua); 500 g ai/ha, scale 0 to 100): 30
Plant response rating, Barnyardgrass [12]: 0
Plant response rating, Sedge, Umbrella [13]: 0
Plant response rating, Rice (rice (Oryza sativa)): 0
Plant response rating, Ducksalad [14]: 0
